Experimental data: patent US20230072523A1, “PROCESS AND SYSTEM FOR ACELLULAR THERAPY” (Orgenesis Inc., priority 2020, published 2023)

Assay: acetaminophen cytotoxicity, cell viability by XTT assay
Type: cell-based
Settings: 48 hrs incubation, control 100%; for viability at 48 h, 5 mM: acetaminophen 5 mM
Excerpt: In the current example, cytotoxicity-induced paracrine EVs were replaced by current existing extracorporeal regimen, in addition to replace depleted body fluids with protective EVs fused during hemodialysis. EV mimetics—Bioxomes or chelator-containing EV mimetics, named Redoxomes as described by us recently in PCT publication no. PCT/IL2019/050391 (incorporated herein by reference) were used. Selected chelator, DSFX—deferoxamine embedded in Redoxomes can be fused with EVs or body fluids, or cells to protect from cytotoxicity damage, prevent liver and kidney failure and mortality, morbidity rate. To establish growth conditions sensitive to proliferation inhibition cytoparameters, calibration of dynamic cell growth parameters was performed by calibration of cell number in CellTiter-Glo Assay (Promega) shown on tables 3 and 4 below in relative units.
Specific protective anti-cytotoxicity example tested on calibrated above assays of EV mimetic proprietary Bioxome, is shown in table below. Cell viability, %, measured by XTT assay (Biological Industries Beit Haemek). Cell viability without treatment was calibrated by dose dependence to serum conditions and cell density. Cell seeding established for 10000, 20000 cells/well in 96 well plates. For RCB001 cells (liver derived mesenchymal like cells)—10,000 cells. For −HepG2 cells—20,000 cells density used. Cells were grown in DMEM plus 10% exosome depleted FBS (ThermoFisher Scientific).

CC(=O)Nc1ccc(O)cc1 [Acetaminophen]
viability at 48 h, 5 mM (RCB001 cells (liver derived mesenchymal like cells)): 57 to 81% | viability at 48 h, 10 mN (RCB001 cells (liver derived mesenchymal like cells), acetaminophen): 46% | viability at 48 h, 5 mM (human, HepG2 cells): 62% | viability at 48 h, 10 mM (human, HepG2 cells, acetaminophen 10 mM): 46%
